# Measured values from patent publication US20230087118A1, “IMIDAZO[1,2-a][sequence] DERIVATIVES AND THEIR USE IN THE TREATMENT OF DISEASE” (priority 2019, published 2023).
# Counter-ions that a name gives are not always drawn.
# Biological target: T1, IRAK4 (Homo sapiens, UniProt Q9NWZ3)
# T1 sequence (Q9NWZ3 1-460): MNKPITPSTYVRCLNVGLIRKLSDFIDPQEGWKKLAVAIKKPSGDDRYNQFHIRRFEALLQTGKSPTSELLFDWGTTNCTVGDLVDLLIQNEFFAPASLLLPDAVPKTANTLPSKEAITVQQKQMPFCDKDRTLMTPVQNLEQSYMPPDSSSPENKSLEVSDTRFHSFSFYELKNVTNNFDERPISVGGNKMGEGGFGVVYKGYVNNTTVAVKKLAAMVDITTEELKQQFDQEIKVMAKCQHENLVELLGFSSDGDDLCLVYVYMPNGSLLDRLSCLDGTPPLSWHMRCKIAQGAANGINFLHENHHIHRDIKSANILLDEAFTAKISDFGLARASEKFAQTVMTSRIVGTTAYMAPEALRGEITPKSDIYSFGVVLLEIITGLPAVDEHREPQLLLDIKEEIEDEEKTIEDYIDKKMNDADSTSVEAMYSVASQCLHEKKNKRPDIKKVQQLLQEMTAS
# Assay: biochemical
# Settings: not given
row,Compound,IC50 [µM]
1,"CC(C)Oc1nc2nc(C34CCC(C)(CC3)OC4)cn2cc1C(=O)Nc1cc(F)n(C)n1 [Example 382, N-(5-fluoro-1-methyl-1H-pyrazol-3-yl)-7-isopropoxy-2-(1-methyl-2-oxabicyclo[2.2.2]octan-4-yl)imidazo[1,2-a]pyrimidine-6-carboxamide]",0.0046
2,"CC(C)Oc1nc2nc(C34COC(C)(C3)C4)cn2cc1C(=O)Nc1cccc(C2CC2)n1 [Example 387, N-(6-cyclopropylpyridin-2-yl)-7-isopropoxy-2-(1-methyl-2-oxabicyclo[2.1.1]hexan-4-yl)imidazo[1,2-a]pyrimidine-6-carboxamide]",0.0009
3,"CC(C)Oc1c(C(=O)Nc2cccc(-c3cnn(C)c3)n2)cn2cc(C34COC(C)(C3)C4)nc2c1F [Example 393, 8-Fluoro-7-isopropoxy-N-(6-(1-methyl-1H-pyrazol-4-yl)pyridin-2-yl)-2-(1-methyl-2-oxabicyclo[2.1.1]hexan-4-yl)imidazo[1,2-a]pyridine-6-carboxamide]",0.0001
4,"CC(C)Oc1cc(C(=O)Nc2cccc(C(F)F)n2)cn2cc(C3CCCOC3)nc12 (stereo not shown) [Example 394, N-(6-(difluoromethyl)pyridin-2-yl)-8-isopropoxy-2-(tetrahydro-2H-pyran-3-yl)imidazo[1,2-a]pyridine-6-carboxamide]",0.0057
5,"CC(C)Oc1nc2nc(C3C4COCC43)cn2cc1C(=O)Nc1ccn(C(F)F)n1 (stereo not shown) [Example 395, 2-(3-Oxabicyclo[3.1.0]hexan-6-yl)-N-(1-(difluoromethyl)-1H-pyrazol-3-yl)-7-isopropoxyimidazo[1,2-a]pyrimidine-6-carboxamide]",0.0057
6,"CC(C)Oc1nc2nc(C34COC(C)(C3)C4)cn2cc1C(=O)Nc1nc(C(F)(F)F)cs1 [Example 397, 7-Isopropoxy-2-(1-methyl-2-oxabicyclo[2.1.1]hexan-4-yl)-N-(4-(trifluoromethyl)thiazol-2-yl)imidazo[1,2-a]pyrimidine-6-carboxamide]",0.0134

# Results, then the molecule that gave them:
row,IC50 [µM],Compound
1,0.0002,"CC(C)Oc1nc2nc(C34COC(C)(C3)C4)cn2cc1C(=O)Nc1cccc2scnc12 [Example 378, N-(benzo[d]thiazol-4-yl)-7-isopropoxy-2-(1-methyl-2-oxabicyclo[2.1.1]hexan-4-yl)imidazo[1,2-a]pyrimidine-6-carboxamide]"
2,0.0004,"CC(C)Oc1nc2nc(C34COC(CF)(C3)C4)cn2cc1C(=O)Nc1cccn(C(F)F)c1=O [Example 381, N-(1-(difluoromethyl)-2-oxo-1,2-dihydropyridin-3-yl)-2-(1-(fluoromethyl)-2-oxabicyclo[2.1.1]hexan-4-yl)-7-isopropoxyimidazo[1,2-a]pyrimidine-6-carboxamide]"
3,0.0002,"CC(C)Oc1nc2nc(C34CCC(C)(CC3)OC4)cn2cc1C(=O)Nc1cccn(C(F)F)c1=O [Example 384, N-(1-(difluoromethyl)-2-oxo-1,2-dihydropyridin-3-yl)-7-isopropoxy-2-(1-methyl-2-oxabicyclo[2.2.2]octan-4-yl)imidazo[1,2-a]pyrimidine-6-carboxamide]"
4,0.0004,"CC(C)Oc1nc2nc(C34COC(C)(C3)C4)cn2cc1C(=O)Nc1cccc2ccnn12 [Example 385, 7-Isopropoxy-2-(1-methyl-2-oxabicyclo[2.1.1]hexan-4-yl)-N-(pyrazolo[1,5-a]pyridin-7-yl)imidazo[1,2-a]pyrimidine-6-carboxamide]"
5,0.0012,"CC(C)Oc1nc2nc(C34COC(C)(C3)C4)cn2cc1C(=O)Nc1cccc(C(F)F)c1 [Example 386, N-(3-(difluoromethyl)phenyl)-7-isopropoxy-2-(1-methyl-2-oxabicyclo[2.1.1]hexan-4-yl)imidazo[1,2-a]pyrimidine-6-carboxamide]"
6,0.0002,"CC(C)Oc1nc2nc(C34COC(C)(C3)C4)cn2cc1C(=O)Nc1cccn(C(F)F)c1=O [Example 388, N-(1-(difluoromethyl)-2-oxo-1,2-dihydropyridin-3-yl)-7-isopropoxy-2-(1-methyl-2-oxabicyclo[2.1.1]hexan-4-yl)imidazo[1,2-a]pyrimidine-6-carboxamide]"
7,0.0032,"CC(C)Oc1nc2nc(C34COC(C)(C3)C4)cn2cc1C(=O)Nc1cccnc1OC(F)F [Example 389, N-(2-(difluoromethoxy)pyridin-3-yl)-7-isopropoxy-2-(1-methyl-2-oxabicyclo[2.1.1]hexan-4-yl)imidazo[1,2-a]pyrimidine-6-carboxamide]"
8,0.003,"CC(C)Oc1nc2nc(C34COC(C)(C3)C4)cn2cc1C(=O)Nc1cccc(F)c1Cl [Example 399, N-(2-chloro-3-fluorophenyl)-7-isopropoxy-2-(1-methyl-2-oxabicyclo[2.1.1]hexan-4-yl)imidazo[1,2-a]pyrimidine-6-carboxamide]"

# Same assay, conditions: IRAK4 Biochemical Assay (1 mM ATP, 2 h) IC50 (μM), 1 mM ATP, 2 h, 100 pM IRAK4
row,Compound,IC50 [µM]
1,"CC(C)Oc1nc2nc(C34CCC(C)(CC3)OC4)cn2cc1C(=O)Nc1cccc(C(F)F)n1 [Example 383, N-(6-(difluoromethyl)pyridin-2-yl)-7-isopropoxy-2-(1-methyl-2-oxabicyclo[2.2.2]octan-4-yl)imidazo[1,2-a]pyrimidine-6-carboxamide]",0.0001
2,"CCOc1cc2nc(C3(OC)CC3)cn2cc1C(=O)Nc1cccc(C(F)F)n1 [Example 390, N-(6-(difluoromethyl)pyridin-2-yl)-7-ethoxy-2-(1-methoxy-cyclopropyl)imidazo[1,2-a]pyridine-6-carboxamide hydrochloride]",0.009
3,"CCOc1cc2nc(C3CCOCC3)cn2cc1C(=O)Nc1cccc(C2CCOC2)n1 (stereo not shown) [Example 391, 7-Ethoxy-2-(tetrahydro-2H-pyran-4-yl)-N-(6-(tetrahydrofuran-3-yl)pyridin-2-yl)imidazo[1,2-a]pyridine-6-carboxamide hydrochloride]",0.0034
4,"CCOc1cc2nc(C3CCOCC3)cn2cc1C(=O)Nc1cccc(C(F)CF)n1 (stereo not shown) [Example 392, N-(6-(1,2-difluoroethyl)pyridin-2-yl)-7-ethoxy-2-(tetrahydro-2H-pyran-4-yl)imidazo[1,2-a]pyridine-6-carboxamide hydrochloride]",0.0018
5,"CC(C)Oc1nc2nc(C3C4COCC43)cn2cc1C(=O)Nc1ccn(C)n1 (stereo not shown) [Example 396, 2-(3-Oxabicyclo[3.1.0]hexan-6-yl)-7-isopropoxy-N-(1-methyl-1H-pyrazol-3-yl)imidazo[1,2-a]pyrimidine-6-carboxamide formate]",0.0076
6,"CC(C)Oc1nc2nc(C34COC(C)(C3)C4)cn2cc1C(=O)Nc1cnn2cc(F)cnc12 [Example 398, N-(6-fluoropyrazolo[1,5-a]pyrimidin-3-yl)-7-isopropoxy-2-(1-methyl-2-oxabicyclo[2.1.1]hexan-4-yl)imidazo[1,2-a]pyrimidine-6-carboxamide]",0.0002

# Continued, values first:
row,IC50 [µM],Compound
1,0.001,"CC(C)Oc1nc2nc(C34COC(C)(C3)C4)cn2cc1C(=O)Nc1cccc2c1ncn2C [Example 379, 7-Isopropoxy-N-(1-methyl-1H-benzo[d]imidazol-4-yl)-2-(1-methyl-2-oxabicyclo[2.1.1]hexan-4-yl)imidazo[1,2-a]pyrimidine-6-carboxamide trifluoroacetate]"
2,0.0002,"CC(C)Oc1nc2nc(C34COC(C)(C3)C4)cn2cc1C(=O)Nc1csc2nccnc12 [Example 380, 7-Isopropoxy-2-(1-methyl-2-oxabicyclo[2.1.1]hexan-4-yl)-N-(thieno[2,3-b]pyrazin-7-yl)imidazo[1,2-a]pyrimidine-6-carboxamide trifluoroacetate]"
